# Experimental data reported in US20220016101A1 (ACADIA Pharmaceuticals Inc., priority 2018, published 2022).
# Like-named read-outs stand apart in the source and are kept apart here.
# Key:
# [1] = target: alpha1 adrenergic receptor; assay: Receptor profile: affinity (Ki) at α1; type: binding; settings: other noteworthy target; data on file
# [2] = target: T1, 5-HT3 (Homo sapiens, UniProt P46098); settings: other noteworthy target; literature sources; read-out: affinity (Ki) 5-HT3; cited from earlier work
# T1 sequence (P46098 24-478): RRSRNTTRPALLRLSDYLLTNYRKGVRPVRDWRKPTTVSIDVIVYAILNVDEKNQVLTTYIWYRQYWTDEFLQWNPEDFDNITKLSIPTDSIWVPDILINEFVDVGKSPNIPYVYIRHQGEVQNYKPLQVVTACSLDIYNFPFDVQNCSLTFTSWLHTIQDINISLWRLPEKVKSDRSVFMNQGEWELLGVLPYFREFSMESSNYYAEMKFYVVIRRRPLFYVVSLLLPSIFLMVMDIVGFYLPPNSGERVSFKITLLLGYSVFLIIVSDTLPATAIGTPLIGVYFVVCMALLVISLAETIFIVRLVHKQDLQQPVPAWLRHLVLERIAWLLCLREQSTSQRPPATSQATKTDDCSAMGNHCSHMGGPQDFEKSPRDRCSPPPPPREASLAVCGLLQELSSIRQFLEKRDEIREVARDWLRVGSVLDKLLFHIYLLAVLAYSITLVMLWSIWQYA
# [3] = target: T2, 5-HT2C (Homo sapiens, UniProt P28335); settings: literature sources; read-out: affinity (Ki) 5-HT2C; cited from earlier work
# T2 sequence (P28335 33-458): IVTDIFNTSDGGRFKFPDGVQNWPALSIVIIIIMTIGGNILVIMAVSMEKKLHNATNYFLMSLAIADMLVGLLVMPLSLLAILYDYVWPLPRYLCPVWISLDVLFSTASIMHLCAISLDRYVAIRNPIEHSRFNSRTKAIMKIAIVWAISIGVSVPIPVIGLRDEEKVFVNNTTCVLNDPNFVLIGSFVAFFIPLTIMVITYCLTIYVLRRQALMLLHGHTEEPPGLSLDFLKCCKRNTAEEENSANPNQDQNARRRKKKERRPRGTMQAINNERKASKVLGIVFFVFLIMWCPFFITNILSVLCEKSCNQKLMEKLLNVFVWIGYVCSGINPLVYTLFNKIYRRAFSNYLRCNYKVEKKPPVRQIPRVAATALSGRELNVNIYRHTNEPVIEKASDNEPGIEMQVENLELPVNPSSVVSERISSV
# [4] = target: alpha2 adrenergic receptor; settings: read-out: affinity (Ki) α2; other noteworthy target; literature sources; cited from earlier work
# [5] = target: T3, D4 (Homo sapiens, UniProt P21917); settings: other noteworthy target; literature sources; read-out: affinity (Ki) D4; cited from earlier work
# T3 sequence (P21917 1-419): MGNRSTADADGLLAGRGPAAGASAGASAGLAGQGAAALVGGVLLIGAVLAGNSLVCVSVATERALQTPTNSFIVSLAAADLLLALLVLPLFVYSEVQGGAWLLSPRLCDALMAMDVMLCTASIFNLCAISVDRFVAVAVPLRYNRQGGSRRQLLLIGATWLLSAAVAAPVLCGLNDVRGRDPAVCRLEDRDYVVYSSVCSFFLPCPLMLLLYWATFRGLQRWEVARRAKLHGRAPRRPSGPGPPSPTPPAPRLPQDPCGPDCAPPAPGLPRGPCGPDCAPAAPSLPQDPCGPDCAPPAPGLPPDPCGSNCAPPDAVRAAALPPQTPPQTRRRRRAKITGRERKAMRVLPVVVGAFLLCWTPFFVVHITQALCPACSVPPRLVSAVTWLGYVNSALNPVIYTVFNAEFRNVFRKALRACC
# [6] = target: dopamine transporter (Homo sapiens, UniProt Q01959); assay: Receptor profile: affinity (Ki) at DAT; type: binding; settings: data on file
# dopamine transporter, sequence (Q01959 whole entry): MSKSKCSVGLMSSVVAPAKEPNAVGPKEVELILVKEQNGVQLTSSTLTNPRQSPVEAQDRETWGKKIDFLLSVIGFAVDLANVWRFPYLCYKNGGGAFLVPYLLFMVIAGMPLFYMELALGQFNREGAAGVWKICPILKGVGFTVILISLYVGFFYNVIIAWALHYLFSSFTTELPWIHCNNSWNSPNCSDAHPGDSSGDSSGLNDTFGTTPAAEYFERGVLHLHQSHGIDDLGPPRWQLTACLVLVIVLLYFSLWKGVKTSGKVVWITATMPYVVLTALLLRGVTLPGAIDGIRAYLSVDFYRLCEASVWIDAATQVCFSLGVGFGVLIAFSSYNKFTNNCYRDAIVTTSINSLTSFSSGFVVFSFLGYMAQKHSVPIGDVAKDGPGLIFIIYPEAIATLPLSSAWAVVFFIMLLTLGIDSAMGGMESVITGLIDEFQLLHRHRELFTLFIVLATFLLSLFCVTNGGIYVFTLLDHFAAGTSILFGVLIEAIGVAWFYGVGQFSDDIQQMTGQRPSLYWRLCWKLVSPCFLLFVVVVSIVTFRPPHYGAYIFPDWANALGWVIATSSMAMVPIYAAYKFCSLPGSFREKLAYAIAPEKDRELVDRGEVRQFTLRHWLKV
# [7] = target: norepinephrine transporter (Homo sapiens, UniProt P23975); assay: Receptor profile: affinity (Ki) at NET; type: binding; settings: data on file
# norepinephrine transporter, sequence (P23975 whole entry, species assumed): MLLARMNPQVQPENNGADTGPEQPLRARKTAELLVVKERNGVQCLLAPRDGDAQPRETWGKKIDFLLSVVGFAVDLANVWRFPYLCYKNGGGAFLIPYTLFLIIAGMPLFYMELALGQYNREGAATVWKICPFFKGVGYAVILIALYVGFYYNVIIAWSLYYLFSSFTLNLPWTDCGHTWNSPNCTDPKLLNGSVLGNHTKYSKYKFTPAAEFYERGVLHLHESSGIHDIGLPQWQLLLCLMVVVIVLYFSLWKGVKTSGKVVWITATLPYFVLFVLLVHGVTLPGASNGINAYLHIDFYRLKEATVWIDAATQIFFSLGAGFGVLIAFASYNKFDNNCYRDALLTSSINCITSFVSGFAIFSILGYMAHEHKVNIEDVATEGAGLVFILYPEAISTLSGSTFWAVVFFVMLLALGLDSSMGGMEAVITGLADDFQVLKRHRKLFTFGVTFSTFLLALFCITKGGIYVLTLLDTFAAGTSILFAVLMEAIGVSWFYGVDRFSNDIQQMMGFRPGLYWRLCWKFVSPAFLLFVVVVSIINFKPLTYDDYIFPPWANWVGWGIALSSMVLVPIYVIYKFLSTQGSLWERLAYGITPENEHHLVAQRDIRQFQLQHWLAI
# [8] = target: serotonin transporter (Homo sapiens, UniProt P31645); assay: Receptor profile: affinity (Ki) at SERT; type: binding; settings: data on file
# serotonin transporter, sequence (P31645 whole entry): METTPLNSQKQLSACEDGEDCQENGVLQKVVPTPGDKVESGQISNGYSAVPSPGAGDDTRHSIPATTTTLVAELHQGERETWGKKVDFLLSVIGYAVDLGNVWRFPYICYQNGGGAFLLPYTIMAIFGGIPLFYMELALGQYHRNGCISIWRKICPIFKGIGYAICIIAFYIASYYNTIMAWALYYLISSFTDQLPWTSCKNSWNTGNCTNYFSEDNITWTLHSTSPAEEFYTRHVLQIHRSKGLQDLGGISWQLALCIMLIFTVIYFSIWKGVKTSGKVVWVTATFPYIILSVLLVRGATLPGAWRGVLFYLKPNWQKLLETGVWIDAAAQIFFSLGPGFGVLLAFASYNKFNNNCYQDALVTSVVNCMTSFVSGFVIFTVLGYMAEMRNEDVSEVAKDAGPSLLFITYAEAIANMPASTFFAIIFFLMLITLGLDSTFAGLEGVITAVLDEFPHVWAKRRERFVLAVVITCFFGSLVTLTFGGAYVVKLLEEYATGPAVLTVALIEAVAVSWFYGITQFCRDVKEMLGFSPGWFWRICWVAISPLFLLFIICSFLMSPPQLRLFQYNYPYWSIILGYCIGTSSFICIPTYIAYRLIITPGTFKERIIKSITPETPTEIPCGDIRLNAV
# [9] = target: 5-HT2A (Homo sapiens, UniProt P28223); assay: Receptor profile: affinity (Ki) at 5-HT2A; type: binding; settings: data on file
# 5-HT2A, sequence (P28223 whole entry, species assumed): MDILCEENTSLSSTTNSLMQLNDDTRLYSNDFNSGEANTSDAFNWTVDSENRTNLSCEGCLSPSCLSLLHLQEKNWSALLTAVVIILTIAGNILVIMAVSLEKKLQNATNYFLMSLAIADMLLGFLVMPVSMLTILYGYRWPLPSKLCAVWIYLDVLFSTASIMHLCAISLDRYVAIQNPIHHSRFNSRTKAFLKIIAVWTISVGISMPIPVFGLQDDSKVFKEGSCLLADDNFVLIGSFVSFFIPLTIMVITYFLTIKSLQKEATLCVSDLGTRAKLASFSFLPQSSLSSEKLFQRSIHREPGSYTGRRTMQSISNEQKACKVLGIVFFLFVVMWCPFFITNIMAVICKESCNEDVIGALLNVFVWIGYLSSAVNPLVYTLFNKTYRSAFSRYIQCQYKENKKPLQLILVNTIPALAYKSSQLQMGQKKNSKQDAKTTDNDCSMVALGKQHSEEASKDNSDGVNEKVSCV
# [10] = target: T2, 5-HT2C; assay: Receptor profile: affinity (Ki) at 5-HT2C; type: binding; settings: data on file
# [11] = test system: patients with MDD; settings: Baldwin et al (2013); printed as x to 1; cited from earlier work
Ki [6],Ki [7],Ki [8],Ki [10],Compound,Ki [3],Ki [4],also measured
,,,,"O=C(c1ccc(F)cc1)C1CCN(CCn2c(=O)[nH]c3ccccc3c2=O)CC1 [KET, ketanserin]",,,Ki [1]: 15 to 20 nM
,,,,"CN1CCN2c3ncccc3Cc3ccccc3C2C1 (centres unmarked) [MIRT, mirtazapine]",40 nM,15 to 20 nM,Ki [2]: 10 nM
,,,,"NC(=O)C1(N2CCCCC2)CCN(CCCC(=O)c2ccc(F)cc2)CC1 [PIP, pipamperone]",120 nM,35 nM,Ki [5]: 5 nM
> 1000 nM,> 1000 nM,> 1000 nM,> 1000 nM,"N#Cc1c[nH]c2c(C(=O)N3CCN(CCc4ccc(F)cc4)CC3)cccc12 [PRUV, pruvanserin]",,,Ki [9]: 0.7 nM
> 1000 nM,> 1000 nM,> 1000 nM,3 nM,"Cc1nc2sccn2c(=O)c1CCN1CCC(=C(c2ccc(F)cc2)c2ccc(F)cc2)CC1 [RIT, ritanserin]",,,
,,,,COc1ccc(C(CN(C)C)C2(O)CCCCC2)cc1 (centres unmarked) [venlafaxine],,,odds ratio (drug to placebo) for sexual dysfunction [11]: 24.42
